Test system: UCD patients
Test: HPN-100-009 (Example 2): rate of hyperammonemic crises (HACs)
Assay type: in vivo, human
Conditions: Age 2 Months to <2 Years
Text: HPN-100-009 is an open-label study consisting of a transition period to HPN-100, followed by a safety extension period for at least 6 months and up to 24 months of treatment with HPN-100, depending on age at enrollment. It is designed to capture information important for evaluating safety, pharmacokinetics and efficacy in young children. Subjects eligible for this study included patients ranging from newborn to <2 years of age with either a diagnosed or clinically suspected UCD. Ten infant and toddler (28 days to 23 months) subjects were enrolled in this study.
Subjects aged 2 months to <2 years received RAVICTI® Oral Liquid administered just prior to breastfeeding or intake of formula or food. The recommended dosing regimen is 3-6 times per day depending on feeding schedule and at the discretion of the Investigator. The starting dose of RAVICTI® was based on UCD status (newly diagnosed, or already stable on sodium phenylbutyrate [NaPBA] and/or sodium benzoate [NaBz]) and whether a hyperammonemic crisis is present. Subsequently, the dose was adjusted based on clinical and/or ammonia results, according to an algorithm provided in the protocol.
Rate of Hyperammonemic Crises (HACs) During the First 6 Months on RAVICTI®.
End point description. A HAC was defined having signs and symptoms consistent with hyperammonemia (such as but not limited to frequent vomiting, nausea, headache, lethargy, irritability, combativeness, somnolence) associated with high blood ammonia and requiring medical intervention. Rate of HACs prior to enrollment was calculated as sum of (number of HAC)/sum of (subject age in days at the time of enrollment or 365 days, whichever was less) across all subjects in the corresponding group. Rate of HACs per 6 months during the safety extension was calculated as sum of (number of HAC)/sum of (days during first 6 months starting on Day 8 or number days on RAVICTI®, whichever was less) across all subjects in the corresponding group. Safety population: all enrolled subjects who received any amount of study medication. […]

O=C(CCCc1ccccc1)OCC(COC(=O)CCCc1ccccc1)OC(=O)CCCc1ccccc1 [RAVICTI, benzenebutanoic acid, 1′,1″-(1,2,3-propanetriyl) ester]
Rate of HACs During Safety Extension (Day 8 up to Month 6, n = 9): 0.006 | Rate of HACs During Transition (Days 1-7) (n = 10): 0 | Rate of HACs Prior to Enrollment (up to 365 days prior to enrollment, n = 10): 0.11

— patent US10668040B2, “Treatment of urea cycle disorders in neonates and infants” (Horizon Therapeutics, LLC, priority 2017, dated 2020)
